Where two headings read alike, the source gives them in different places.
Columns and labels:
[1] = test system: w794 duplex DNA (SV40 nucleosomal DNA insert in M13mp10); experiment: DNA alkylation efficiency and selectivity, thermally-induced strand cleavage of 5′ end-labeled duplex DNA (PAGE); format: biochemical; settings: for concentration at which DNA alkylation is detectable: 25° C., 24 hours
From the text: The DNA alkylation properties of the compounds including those of CBI-X9-Y9 (24), CBI-X11-Y9 (25) and CBI-X10-Y10 (26) (FIG. 7) were examined within a 150 base-pair segment of duplex DNA and compared with (+)-duocarmycin SA (2), (+)-CBI-CDPI2 (27) and (+)-CBI-indole2 (28). One clone of phage M13mp10 was selected for the study that contained the SV40 nucleosomal DNA insert w794 (nucleotide no. 5238-138) (Ambrose, C., et al., J. Mol. Biol. 1989, 210, 255). The alkylation site identification and the assessment of the relative selectivity among the available sites was obtained by thermally-induced strand cleavage of the singly 5′ end-labeled duplex DNA after exposure to the agents. After treatment of the end-labeled duplex DNA with a range of agent concentrations, the unbound agent was removed by EtOH precipitation of the DNA. Redissolution of the DNA in aqueous buffer, thermolysis (100° C., 30 min) to induce strand cleavage at the sites of DNA alkylation, denaturing high resolution polyacrylamide gel electrophoresis (PAGE) adjacent to Sanger dideoxynucleotide sequencing standards, and autoradiography led to identification of the DNA cleavage and alkylation sites (Boger, D. L., et al., Tetrahedron 1991, 47, 2661).
The preparation of singly ^32P 5′ end-labeled double-stranded DNA, the agent binding studies, gel electrophoresis, and autoradiography were conducted according to procedures described in full detail elsewhere.^28 Eppendorf tubes containing the 5′ end-labeled DNA (9 μL) in TE buffer (10 mM Tris, 1 mM EDTA, pH 7.5) were treated with the agent in DMSO (1 μL at the specified concentration). The solution was mixed by vortexing and brief centrifugation and subsequently incubated at 25° C. for 24 hours. The covalently modified DNA was separated from the unbound agent by EtOH precipitation and resuspended in TE buffer (10 μL). The solution of DNA in an Eppendorf tube sealed with Parafilm was warmed at 100° C. for 30 min to introduce cleavage at the alkylation sites, allowed to cool to 25° C., and centrifuged. Formamide dye (0.03% xylene cyanol FF, 0.03% bromophenol blue, 8.7% Na2EDTA 250 mM) was added (5 μL) to the supernatant. Prior to electrophoresis, the sample was denatured by warming at 100° C. for 5 min, placed in an ice bath, and centrifuged, and the supernatant (3 μL) was loaded directly onto the gel. Sanger dideoxynucleotide sequencing reactions were run as standards adjacent to the reaction samples. Polyacrylamide gel electrophoresis (PAGE) was run on an 8% sequencing gel under denaturing conditions (8 M urea) in TBE buffer (100 mM Tris, 100 mM boric acid, 0.2 mM Na2EDTA) followed by autoradiography.

[2] = test system: w794 duplex DNA (SV40 nucleosomal DNA insert in M13mp10); settings: cited from earlier work; for DNA alkylation efficiency compared to parent (+)-CBI-CDPI (21) / DNA alkylation selectivity compared to parent (+)-CBI-CDPI (21): previous study
L1210 [3] = settings: previous study; additional heteroatom in carboxylate bearing aromatic ring; cited from earlier work
L1210 [4] = experiment: cellular functional assay for L1210 cytotoxic activity; format: cell-based
Protocol: For comparison, the L1210 IC50 for (+)-N-Boc-CBI, which lacks an attached DNA binding domain, is 80 nM (80,000 pM).

In the case of `NC(=O)N1CCc2c1ccc1[nH]c(C(=O)N3CCc4c3ccc3[nH]c(C(=O)N5C[C@H]6C[C@@]67C5=CC(=O)c5ccccc57)cc43)cc21` [compound 27, (+)-CBI-CDPI2], the “alkylation of the minor 5′-ACTAA-3′ site” value ([1]; w794 DNA) is reported as “neither 27 or 28 alkylate the minor 5′-ACTAA-3′ site to a significant extent”.

In the case of (+)-CBI-CDPBI, the “DNA alkylation efficiency compared to parent (+)-CBI-CDPI (21)” value [2] is listed as “analogous decrease in the DNA alkylation efficiency”, the “DNA alkylation selectivity compared to parent (+)-CBI-CDPI (21)” value [2] is listed as “no alteration in the alkylation selectivity” and the “decrease in cytotoxic activity relative to (+)-CBI-CDPI (21)” value (L1210 [3]) is listed as 40 fold.

With `CC(C)(C)OC(=O)Nc1ccc2[nH]c(C(=O)N3CCc4c3ccc3[nH]c(C(=O)N5CC(CCl)c6c5cc(O)c5ccccc65)cc43)cc2c1` (centres unmarked) [X11-Y14, 1-(Chloromethyl)-5-hydroxy-3-{[3-[5-(tert-Butoxycarbonylaminoindole-2-yl)carbonyl]-1,2-dihydro(3H-pyrrolo[3,2-e]indol)-7-yl)carbonyl}-1,2-dihydrobenzo [e]indole] the IC50 (L1210 [4]) was 7 pM.

With “1-(Chloromethyl)-5-hydroxy-3-{[3-[4-(tert-Butoxycarbonylamino)-1-methylpyrrol-2-yl)-carbonyl]-1,2-dihydro(3H-pyrrolo[3,2-e]indol)-7-yl)carbonyl}-1,2-dihydrobenzo[e]indole [X11-Y10]” the IC50 (L1210 [4]) was 5 pM.

In the case of (+)-CBI-CDPI [compound 21], the “alkylation of the minor 5′-ACTAA-3′ site” value ([2]; w794 DNA, prior study) is given as “does”.

`CC(C)(C)OC(=O)N1CC2CC23C1=CC(=O)c1ccccc13` (single isomer, unassigned; (+)) [(+)-N-Boc-CBI] gave an IC50 (L1210 [4]) of 80000 pM.

In the case of (+)-CBI-CDPBO, the “DNA alkylation efficiency compared to parent (+)-CBI-CDPI (21)” value [2] is listed as “analogous decrease in the DNA alkylation efficiency”, the “DNA alkylation selectivity compared to parent (+)-CBI-CDPI (21)” value [2] is listed as “no alteration in the alkylation selectivity” and the “decrease in cytotoxic activity relative to (+)-CBI-CDPI (21)” value (L1210 [3]) is listed as 40 fold.

Molecule “1-(Chloromethyl)-5-hydroxy-3-{[4-[4-(tert-Butoxycarbonylaminothiophen-2-yl)carbonyl]aminothiophen-2-yl]carbonyl}-1,2-dihydrobenzo[e]indole [X8-Y8]” has an IC50 (L1210 [4]) of 290 pM.

Molecule `CC(C)(C)OC(=O)N1CCc2c1ccc1[nH]c(C(=O)N3CCc4c3ccc3[nH]c(C(=O)N5CC(CCl)c6c5cc(O)c5ccccc65)cc43)cc21` (centres unmarked) [X11-Y11] has an IC50 (L1210 [4]) of 5 pM.

With “1-(Chloromethyl)-5-hydroxy-3-{[3-[2-(tert-Butoxycarbonylamino-1,3-thiazol-4-yl) carbonyl]-1,2-dihydro(3H-pyrrolo[3,2-e]indol)-7-yl)carbonyl}-1,2-dihydrobenzo[e]indole [X11-Y7]” the IC50 (L1210 [4]) was 5 pM.

With `Cn1cc(NC(=O)OC(C)(C)C)nc1C(=O)Nc1cn(C)c(C(=O)N2CC(CCl)c3c2cc(O)c2ccccc32)n1` (centres unmarked) [compound 24] the “concentration at which DNA alkylation is detectable” value ([1]; w794 DNA) was > 10^−3 M.

In the case of “1-(Chloromethyl)-5-hydroxy-3-{[4-[4-(tert-Butoxycarbonylamino)-1-methylpyrrol-2-yl)carbonyl]amino-1-methylpyrrol-2-yl]carbonyl}-1,2-dihydrobenzo[e]indole [X10-Y10]”, the IC50 (L1210 [4]) is reported as 440 pM, the “DNA alkylation effectiveness relative to N-Boc-CBI” value ([1]; comparable reaction conditions) is reported as 10-100 fold and the “lower DNA alkylation efficiency compared to 25” value ([1]; w794 DNA) is reported as 100-1000 fold. The “concentration at which DNA alkylation is detectable” value ([1]; w794 DNA) was 10^−3 M.

For (+)-CBI-indole2 [compound 28], the “alkylation of the minor 5′-ACTAA-3′ site” value ([1]; w794 DNA) was “neither 27 or 28 alkylate the minor 5′-ACTAA-3′ site to a significant extent”.

Source: US20050014700A1, “Cbi analogues of cc-1065 and the duocarmycins” (priority 2001, published 2005)
